# Test results taken from ChEMBL document CHEMBL1201862, “PubChem BioAssay data set” (2004).
#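 How tested: cells in 96-well plates exposed to compound for 48 hours at five concentrations. GI50 = concentration required for 50% inhibition of growth.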 Activity calls are given as the source filed them. Rule as the data show it: active = GI50 up to about 1.1 µM and inactive = higher.
# Assays:
# Assay in all cases: NCI anticancer screen, dose series, 48 h
# K562 = test system: K562
# OVCAR-5 = test system: OVCAR-5
# MDA-N = test system: MDA-N
# IGROV-1 = test system: IGROV-1
# LOX IMVI = test system: LOX IMVI
# SF-268 = test system: SF-268
# HOP-62 = test system: HOP-62
# ACHN = test system: ACHN
# NCI/ADR-RES = test system: NCI/ADR-RES
# KM12 = test system: KM12
# PC-3 = test system: PC-3
# SK-MEL-28 = test system: SK-MEL-28
# SNB-19 = test system: SNB-19
# SK-OV-3 = test system: SK-OV-3
# HOP-92 = test system: HOP-92
# HL-60 = test system: HL-60
# SN12C = test system: SN12C
# CAKI-1 = test system: CAKI-1
# A549 = test system: A549
# OVCAR-8 = test system: OVCAR-8
# SF-539 = test system: SF-539
# UACC-257 = test system: UACC-257
# 786-0 = test system: 786-0
# NCI-H23 = test system: NCI-H23
# Malme-3M = test system: Malme-3M
# A498 = test system: A498
# NCI-H522 = test system: NCI-H522
# RXF 393 = test system: RXF 393
# HCT-15 = test system: HCT-15
# TK-10 = test system: TK-10
# CCRF-CEM = test system: CCRF-CEM
# SF-295 = test system: SF-295
# SK-MEL-5 = test system: SK-MEL-5
# SK-MEL-2 = test system: SK-MEL-2
# UO-31 = test system: UO-31
# NCI-H460 = test system: NCI-H460
# OVCAR-3 = test system: OVCAR-3
# HT-29 = test system: HT-29
# U-251 = test system: U-251
# MDA-MB-231 = test system: MDA-MB-231
# SW-620 = test system: SW-620
# MDA-MB-435 = test system: MDA-MB-435
# M14 = test system: M14
# Hs-578T = test system: Hs-578T
# MOLT-4 = test system: MOLT-4
# HCC 2998 = test system: HCC 2998
# RPMI-8226 = test system: RPMI-8226
# COLO 205 = test system: COLO 205
# EKVX = test system: EKVX
# UACC-62 = test system: UACC-62
# T47D = test system: T47D
# SR = test system: SR
# DU-145 = test system: DU-145
# HCT-116 = test system: HCT-116
# MCF7 = test system: MCF7
# BT-549 = test system: BT-549
# SNB-75 = test system: SNB-75
# OVCAR-4 = test system: OVCAR-4
# NCI-H226 = test system: NCI-H226
structure (smiles),measurement,setting,value
CCOC(=O)CC(C)C(C#N)(OP1(=O)OC(c2ccccc2)C(C)N1C)c1ccccc1 (stereo not given),GI50,K562,32.1 µM (inactive)
same,GI50,OVCAR-5,> 100 µM (inactive)
same,GI50,MDA-N,> 100 µM (inactive)
same,GI50,IGROV-1,55.2 µM (inactive)
same,GI50,LOX IMVI,55.3 µM (inactive)
same,GI50,SF-268,> 100 µM (inactive)
same,GI50,HOP-62,> 100 µM (inactive)
same,GI50,ACHN,44.1 µM (inactive)
same,GI50,NCI/ADR-RES,39.5 µM (inactive)
same,GI50,KM12,45.8 µM (inactive)
same,GI50,PC-3,33.6 µM (inactive)
same,GI50,SK-MEL-28,81.7 µM (inactive)
same,GI50,SNB-19,99.1 µM (inactive)
same,GI50,SK-OV-3,86.7 µM (inactive)
same,GI50,HOP-92,17.8 µM (inactive)
same,GI50,HL-60,34.9 µM (inactive)
same,GI50,SN12C,58.9 µM (inactive)
same,GI50,CAKI-1,81.5 µM (inactive)
same,GI50,A549,47 µM (inactive)
same,GI50,OVCAR-8,46.1 µM (inactive)
same,GI50,SF-539,> 100 µM (inactive)
same,GI50,UACC-257,41.3 µM (inactive)
same,GI50,786-0,77.8 µM (inactive)
same,GI50,NCI-H23,66.1 µM (inactive)
same,GI50,Malme-3M,85.1 µM (inactive)
same,GI50,A498,65.3 µM (inactive)
same,GI50,NCI-H522,62.5 µM (inactive)
same,GI50,RXF 393,67.5 µM (inactive)
same,GI50,HCT-15,43.7 µM
same,GI50,TK-10,68.7 µM (inactive)
same,GI50,CCRF-CEM,29.9 µM (inactive)
same,GI50,SF-295,46.9 µM (inactive)
same,GI50,SK-MEL-5,47.6 µM (inactive)
same,GI50,SK-MEL-2,34.1 µM (inactive)
same,GI50,UO-31,35.4 µM (inactive)
same,GI50,NCI-H460,47.4 µM (inactive)
same,GI50,OVCAR-3,50.7 µM (inactive)
same,GI50,HT-29,57.7 µM (inactive)
same,GI50,U-251,49 µM (inactive)
same,GI50,MDA-MB-231,59.7 µM (inactive)
same,GI50,SW-620,54.7 µM (inactive)
same,GI50,MDA-MB-435,61 µM (inactive)
same,GI50,M14,68.5 µM (inactive)
same,GI50,Hs-578T,83.6 µM (inactive)
same,GI50,MOLT-4,28.8 µM (inactive)
same,GI50,HCC 2998,36 µM (inactive)
same,GI50,RPMI-8226,36.3 µM (inactive)
same,GI50,COLO 205,18.5 µM (inactive)
same,GI50,EKVX,62.2 µM (inactive)
same,GI50,UACC-62,58.7 µM (inactive)
same,GI50,T47D,30.5 µM (inactive)
same,GI50,SR,48.6 µM (inactive)
same,GI50,DU-145,97.5 µM (inactive)
same,GI50,HCT-116,50.2 µM (inactive)
same,GI50,MCF7,37.8 µM (inactive)
same,GI50,BT-549,55.1 µM (inactive)
CCOC(=O)NNC1(SC)NC(=O)c2c(cc(Cl)oc2=O)O1 (stereo not given),GI50,K562,1.62 µM (inactive)
same,GI50,OVCAR-5,11.5 µM (inactive)
same,GI50,MDA-N,2.58 µM (inactive)
same,GI50,SNB-75,9.84 µM (inactive)
same,GI50,OVCAR-4,6.17 µM (inactive)
same,GI50,IGROV-1,3.87 µM (inactive)
same,GI50,LOX IMVI,2.06 µM (inactive)
same,GI50,SF-268,3.49 µM (inactive)
same,GI50,HOP-62,11.3 µM (inactive)
same,GI50,ACHN,1.87 µM (inactive)
same,GI50,NCI/ADR-RES,6.84 µM (inactive)
same,GI50,KM12,10.4 µM (inactive)
same,GI50,PC-3,3.4 µM (inactive)
same,GI50,SK-MEL-28,3.08 µM (inactive)
same,GI50,SNB-19,11.5 µM (inactive)
same,GI50,SK-OV-3,8.02 µM (inactive)
same,GI50,HOP-92,1.96 µM (inactive)
same,GI50,HL-60,1.9 µM (inactive)
same,GI50,SN12C,3.21 µM (inactive)
same,GI50,CAKI-1,2.72 µM (inactive)
same,GI50,A549,8.11 µM (inactive)
same,GI50,OVCAR-8,2.07 µM (inactive)
same,GI50,SF-539,1.79 µM (inactive)
same,GI50,UACC-257,7.26 µM (inactive)
same,GI50,786-0,1.92 µM (inactive)
same,GI50,NCI-H23,3.61 µM (inactive)
same,GI50,A498,14.2 µM (inactive)
same,GI50,NCI-H522,2.12 µM (inactive)
same,GI50,RXF 393,3.14 µM (inactive)
same,GI50,HCT-15,2.17 µM
same,GI50,TK-10,3.55 µM (inactive)
same,GI50,CCRF-CEM,2.34 µM (inactive)
same,GI50,SF-295,12.4 µM (inactive)
same,GI50,SK-MEL-5,5.16 µM (inactive)
same,GI50,SK-MEL-2,7.73 µM (inactive)
same,GI50,UO-31,1.72 µM (inactive)
same,GI50,NCI-H226,20.9 µM (inactive)
same,GI50,NCI-H460,8 µM (inactive)
same,GI50,OVCAR-3,2.84 µM (inactive)
same,GI50,HT-29,2.19 µM (inactive)
same,GI50,U-251,10.8 µM (inactive)
same,GI50,MDA-MB-231,8.41 µM (inactive)
same,GI50,SW-620,3.31 µM (inactive)
same,GI50,MDA-MB-435,4.83 µM (inactive)
same,GI50,M14,3.37 µM (inactive)
same,GI50,Hs-578T,5.64 µM (inactive)
same,GI50,MOLT-4,2.67 µM (inactive)
same,GI50,HCC 2998,4.29 µM (inactive)
same,GI50,RPMI-8226,2.84 µM (inactive)
same,GI50,COLO 205,6.93 µM (inactive)
same,GI50,EKVX,6.85 µM (inactive)
same,GI50,UACC-62,5.97 µM (inactive)
same,GI50,T47D,6.85 µM (inactive)
same,GI50,SR,2.36 µM (inactive)
same,GI50,DU-145,4.17 µM (inactive)
same,GI50,HCT-116,1.46 µM (inactive)
same,GI50,MCF7,1.91 µM (inactive)
same,GI50,BT-549,4.37 µM (inactive)
Nc1ncc(Br)c(NCC2(CO)CCC2)n1,GI50,K562,> 100 µM (inactive)
same,GI50,OVCAR-5,20.7 µM (inactive)
same,GI50,MDA-N,> 100 µM (inactive)
same,GI50,SNB-75,> 100 µM (inactive)
same,GI50,OVCAR-4,> 100 µM (inactive)
same,GI50,IGROV-1,> 100 µM (inactive)
same,GI50,LOX IMVI,> 100 µM (inactive)
same,GI50,SF-268,> 100 µM (inactive)
same,GI50,HOP-62,> 100 µM (inactive)
same,GI50,ACHN,> 100 µM (inactive)
same,GI50,NCI/ADR-RES,95.5 µM (inactive)
same,GI50,KM12,> 100 µM (inactive)
same,GI50,PC-3,> 100 µM (inactive)
same,GI50,SK-MEL-28,> 100 µM (inactive)
same,GI50,HOP-92,56.1 µM (inactive)
same,GI50,HL-60,> 100 µM (inactive)
same,GI50,SN12C,> 100 µM (inactive)
same,GI50,CAKI-1,49.8 µM (inactive)
same,GI50,A549,> 100 µM (inactive)
same,GI50,OVCAR-8,> 100 µM (inactive)
same,GI50,SF-539,> 100 µM (inactive)
same,GI50,UACC-257,> 100 µM (inactive)
same,GI50,786-0,> 100 µM (inactive)
same,GI50,NCI-H23,> 100 µM (inactive)
same,GI50,Malme-3M,> 100 µM (inactive)
same,GI50,A498,35.6 µM (inactive)
same,GI50,NCI-H522,92 µM (inactive)
same,GI50,RXF 393,> 100 µM (inactive)
same,GI50,HCT-15,> 100 µM
same,GI50,TK-10,> 100 µM (inactive)
same,GI50,CCRF-CEM,> 100 µM (inactive)
same,GI50,SF-295,97.1 µM (inactive)
same,GI50,SK-MEL-5,54.5 µM (inactive)
same,GI50,SK-MEL-2,> 100 µM (inactive)
same,GI50,UO-31,79.6 µM (inactive)
same,GI50,NCI-H226,66.8 µM (inactive)
same,GI50,NCI-H460,71.9 µM (inactive)
same,GI50,OVCAR-3,> 100 µM (inactive)
same,GI50,HT-29,> 100 µM (inactive)
same,GI50,U-251,> 100 µM (inactive)
same,GI50,MDA-MB-231,> 100 µM (inactive)
same,GI50,SW-620,> 100 µM (inactive)
same,GI50,MDA-MB-435,> 100 µM (inactive)
same,GI50,Hs-578T,> 100 µM (inactive)
same,GI50,MOLT-4,80 µM (inactive)
same,GI50,HCC 2998,> 100 µM (inactive)
same,GI50,RPMI-8226,42.8 µM (inactive)
same,GI50,COLO 205,> 100 µM (inactive)
same,GI50,EKVX,58.5 µM (inactive)
same,GI50,UACC-62,> 100 µM (inactive)
same,GI50,T47D,1.69 µM (inactive)
same,GI50,SR,> 100 µM (inactive)
same,GI50,DU-145,81.3 µM (inactive)
same,GI50,HCT-116,> 100 µM (inactive)
same,GI50,MCF7,> 100 µM (inactive)
same,GI50,BT-549,> 100 µM (inactive)
